Test results as given in PMC10954709, “Structure of an open KATP channel reveals tandem PIP2 binding sites mediating the Kir6.2 and SUR1 regulatory interface” (Nature Communications, 2024).
Where “and” joins values, the source holds several entries; their conditions need not be identical. Equal values may be shown once.

Experiments:
KATP channels = tested on: KATP channels; parameters: method as in PMID 12525701; conditions: cited from earlier work
His175 = His175 (UniProt position 175, KTAQAHRRAET); experiment: electrophysiology; conditions: cited from earlier work
[1] = target: T1, SUR1^K134A/Kir6.2^R176A double mutant channel (UniProt P70673+Q09427, K134A/R176A); experiment: PIP2 response, inside-out patch-clamp recording, COSm6 cells; type: biochemical, rat Kir6.2, hamster SUR1; conditions: 5 μM PIP2; −50 mV; mean (± SEM)
T1 construct: expressed in transfected cells; host or cells: COSm6
Method: (§1) Fig. 3 Functional testing of the two PIP2 binding sites. a Representative inside-out patch-clamp recordings (−50mV, inward currents shown as upward deflections; the red dashed line indicates 0 currents) of various channels: WT, SUR1^K134A (the non-canonical PIP2 binding site mutation)/Kir6.2, SUR1/Kir6.2^R176A (the canonical PIP2 binding site mutation), and SUR1^K134A/Kir6.2^R176A double mutant, exposed alternately in 5 μM PIP2, 0.1 mM ATP, and 1 mM ATP as indicated by the bars above the recordings. The brief exposures to 0.1 mM and 1 mM ATP between PIP2 exposures were used to monitor the gradual decrease in ATP sensitivity as channel opening became increasingly stabilized by PIP2. b Group data of recordings shown in (a) comparing initial currents in K-INT at the time of patch excision. For each group, mean ± SEM of the data points are shown (WT, n = 12; SUR1^K134A, n = 6; Kir6.2^R176A, n = 7; SUR1^K134A/Kir6.2^R176A, n = 6 cells). Statistical significance was tested between mutants and WT or between double and single mutants using two-tailed unpaired t test with Welch’s correction, alpha = 0.05. *SUR1^K134A vs WT, p = 0.0468; ** Kir6.2^R176A vs WT, p = 0.0016; **SUR1^K134A/Kir6.2^R176A vs WT, p = 0.0014; ^#SUR1^K134A/Kir6.2^R176A vs SUR1^K134A, p = 0.0440; ^$SUR1^K134A/Kir6.2^R176A vs Kir6.2^R176A, p = 0.0411. Note the y-axis in this panel and panel (c) is in log scale for better visualization. c Comparison of the maximum fold-increase in currents after PIP2 exposure in different channels. For each group, mean ± SEM of the data points are shown (WT, n = 12; SUR1^K134A, n = 6; Kir6.2^R176A, n = 7; SUR1^K134A/Kir6.2^R176A, n = 5 cells). Statistical significance was tested between mutants and WT or between double and single mutants using two-tailed unpaired t test, alpha = 0.05. ***SUR1^K134A vs WT, p < 0.0001; ** Kir6.2^R176A vs WT, p = 0.0029; **SUR1^K134A/Kir6.2^R176A vs WT, p = 0.0012; ^#SUR1^K134A/Kir6.2^R176A vs SUR1^K134A, p = 0.0247; ^$SUR1^K134A/Kir6.2^R176A vs Kir6.2^R176A, p = 0.0353. d Comparison of the time of exposure in PIP2 for currents to reach maximum in different channels. For each group, mean ± SEM of the data points are shown (WT, n = 12; SUR1^K134A, n = 6; Kir6.2^R176A, n = 7; SUR1^K134A/Kir6.2^R176A, n = 6 cells). Statistical significance was tested between mutants and WT or between double and single mutants using two-tailed unpaired t test, alpha = 0.05. ***SUR1^K134A vs WT, p < 0.0001; ***Kir6.2^R176A vs WT, p = 0.0002; ***SUR1^K134A/Kir6.2^R176A vs WT, p < 0.0001; ^##SUR1^K134A/Kir6.2^R176A vs SUR1^K134A, p = 0.0071.
(§2) For electrophysiology experiments, COSm6 cells were co-transfected with various combination of WT or mutant SUR1 and Kir6.2 cDNAs (SUR1 in pECE and Kir6.2 in pCDNA3) along with the cDNA for the Green Fluorescent Protein (to facilitate identification of transfected cells) using FuGENE® 6 (Promega). Mutant SUR1 and Kir6.2 were constructed using QuikChange (mutagenesis primers are shown in Supplementary Table 2). Cells were plated onto glass coverslips 24 h after transfection and recordings made in the following two days. All experiments were performed at room temperature. Micropipettes were pulled from non-heparinized Kimble glass (Fisher Scientific) on a horizontal puller (Sutter Instrument). Electrode resistance was typically 1-2 MΩ when filled with K-INT solution containing 140 mM KCl, 10 mM K-HEPES, 1 mM K-EGTA, 1 mM EDTA, pH 7.3. ATP was added as the potassium salt. Inside-out patches of cells bathed in K-INT were voltage-clamped with an Axopatch 1D amplifier (Axon Instruments). ATP or porcine brain PIP2 (Avanti Polar Lipids; prepared in K-INT and bath sonicated in ice water for 30 min before use) were added to K-INT as specified in the figure legend. All currents were measured at a membrane potential of −50 mV (pipette voltage = +50 mV). Data were analyzed using pCLAMP10 software (Axon Instrument). Off-line analysis was performed using Clampfit and GraphPad. […]

[2] = target: T2, WT (SUR1/Kir6.2) KATP channels (UniProt P70673+Q09427); experiment: as above; type: biochemical, rat Kir6.2, hamster SUR1; conditions: 5 μM PIP2
T2 construct: expressed in transfected cells; host or cells: COSm6
Method: as §1, §2

[3] = target: T3, SUR1^K134A/Kir6.2 channel (UniProt P70673+Q09427, K134A); experiment: as above; type: biochemical, rat Kir6.2, hamster SUR1; conditions: 5 μM PIP2; −50 mV; mean (± SEM)
T3 construct: expressed in transfected cells; host or cells: COSm6
Method: as §1, §2

[4] = target: T4, SUR1/Kir6.2^R176A channel (UniProt P70673+Q09427, R176A); experiment: as above; type: biochemical, rat Kir6.2, hamster SUR1; conditions: 5 μM PIP2; −50 mV; mean (± SEM)
T4 construct: expressed in transfected cells; host or cells: COSm6
Method: as §1, §2

[5] = target: the molecule itself; experiment: cryo-EM structure; SUR1/Kir6.2^Q52R channel co-expressed in COSm6 cells; membranes enriched with brain PIP2 (1 mg/mL) before solubilisation in digitonin; purified via the N-terminal FLAG tag on SUR1; 0.2 M NaCl, 0.1 M KCl, 0.05 M HEPES pH 7.5, 0.05% digitonin; no ATP or ADP added; graphene oxide-coated grids

T4 sequence (Q09427 whole entry): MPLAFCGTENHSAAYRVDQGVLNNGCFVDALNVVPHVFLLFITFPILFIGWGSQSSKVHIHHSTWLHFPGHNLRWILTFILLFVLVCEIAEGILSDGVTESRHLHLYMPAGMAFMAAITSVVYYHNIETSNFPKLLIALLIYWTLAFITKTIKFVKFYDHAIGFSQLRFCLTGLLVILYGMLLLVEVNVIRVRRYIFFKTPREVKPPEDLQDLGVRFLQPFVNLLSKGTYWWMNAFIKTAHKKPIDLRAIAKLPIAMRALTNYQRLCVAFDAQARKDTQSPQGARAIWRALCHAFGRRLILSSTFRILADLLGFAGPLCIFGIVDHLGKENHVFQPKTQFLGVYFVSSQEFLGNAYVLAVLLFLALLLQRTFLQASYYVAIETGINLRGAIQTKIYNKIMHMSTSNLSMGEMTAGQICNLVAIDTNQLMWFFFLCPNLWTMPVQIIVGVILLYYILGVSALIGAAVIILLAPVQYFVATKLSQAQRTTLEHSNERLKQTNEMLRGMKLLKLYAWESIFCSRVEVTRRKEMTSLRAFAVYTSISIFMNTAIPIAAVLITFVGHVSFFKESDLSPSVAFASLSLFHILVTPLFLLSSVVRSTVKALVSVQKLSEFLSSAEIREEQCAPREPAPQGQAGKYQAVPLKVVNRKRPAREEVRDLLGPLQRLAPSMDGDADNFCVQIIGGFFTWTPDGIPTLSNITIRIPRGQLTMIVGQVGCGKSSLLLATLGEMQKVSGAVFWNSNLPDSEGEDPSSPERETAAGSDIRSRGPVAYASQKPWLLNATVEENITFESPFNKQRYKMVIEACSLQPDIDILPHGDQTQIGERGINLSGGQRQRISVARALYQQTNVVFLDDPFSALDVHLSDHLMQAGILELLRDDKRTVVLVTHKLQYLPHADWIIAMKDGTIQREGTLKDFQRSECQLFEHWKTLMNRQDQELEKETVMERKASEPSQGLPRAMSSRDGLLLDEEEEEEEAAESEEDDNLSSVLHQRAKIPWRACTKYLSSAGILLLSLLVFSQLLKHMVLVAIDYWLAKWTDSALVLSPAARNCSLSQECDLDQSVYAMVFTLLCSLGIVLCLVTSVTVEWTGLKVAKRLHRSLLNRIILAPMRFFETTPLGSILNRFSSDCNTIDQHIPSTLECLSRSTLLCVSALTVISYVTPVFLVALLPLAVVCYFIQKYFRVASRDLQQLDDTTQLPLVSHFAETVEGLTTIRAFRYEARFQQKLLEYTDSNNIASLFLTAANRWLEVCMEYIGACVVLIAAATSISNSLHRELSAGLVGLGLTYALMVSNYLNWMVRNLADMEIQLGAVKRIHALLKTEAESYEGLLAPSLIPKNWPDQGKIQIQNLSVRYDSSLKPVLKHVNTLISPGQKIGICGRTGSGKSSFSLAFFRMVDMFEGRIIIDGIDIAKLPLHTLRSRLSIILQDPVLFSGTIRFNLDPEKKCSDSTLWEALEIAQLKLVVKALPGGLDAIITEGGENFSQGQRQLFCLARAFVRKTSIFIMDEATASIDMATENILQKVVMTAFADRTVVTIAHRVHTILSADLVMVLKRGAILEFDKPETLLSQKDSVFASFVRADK
T4 sequence (P70673 whole entry R176A): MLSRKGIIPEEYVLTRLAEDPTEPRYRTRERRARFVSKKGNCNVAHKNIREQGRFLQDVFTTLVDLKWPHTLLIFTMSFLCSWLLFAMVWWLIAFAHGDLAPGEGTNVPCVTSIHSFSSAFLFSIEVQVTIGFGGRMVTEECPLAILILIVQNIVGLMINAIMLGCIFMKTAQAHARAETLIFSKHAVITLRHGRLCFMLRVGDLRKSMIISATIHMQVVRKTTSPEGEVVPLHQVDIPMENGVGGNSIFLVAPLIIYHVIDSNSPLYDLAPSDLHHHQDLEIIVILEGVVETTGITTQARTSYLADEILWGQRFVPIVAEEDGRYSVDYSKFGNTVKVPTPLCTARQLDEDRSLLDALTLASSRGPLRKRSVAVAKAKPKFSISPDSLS
T1 sequence (Q09427 whole entry K134A): as the sequence (Q09427 whole entry) above, with K134A counted along it
T1 sequence (P70673 whole entry R176A): as the sequence (P70673 whole entry R176A) above
T3 sequence (Q09427 whole entry K134A): as the sequence (Q09427 whole entry) above, with K134A counted along it
T3 sequence (P70673 whole entry): as the sequence (P70673 whole entry R176A) above, with A176R counted along it
T2 sequence (P70673 whole entry): as the sequence (P70673 whole entry R176A) above, with A176R counted along it
T2 sequence (Q09427 whole entry): as the sequence (Q09427 whole entry) above

Molecule: CCCCCCCC(=O)OC[C@H](COP(=O)(O)O[C@@H]1[C@H](O)[C@H](O)[C@@H](OP(=O)(O)O)[C@H](OP(=O)(O)O)[C@H]1O)OC(=O)CCCCCCC [diC8-PIP2, diC8-PI(4,5)P2]
- reversibility of channel activation (KATP channels; synthetic short-chain PIP2): readily reversible

Molecule: ATP-sensitive inward rectifier potassium channel Kir6.2 (pore subunit of the KATP channel) (not stated for the quoted measurement (this article's own constructs are rat Kir6.2, Rattus norvegicus, with hamster SUR1))
- pKa (His175): 7.16

Molecule: PI(3,4)P2
- activation of KATP channels (KATP channels): activated equally well

Molecule: PI(3,4,5)P3
- activation of KATP channels (KATP channels): activated equally well

Molecule: PI(4)P
- activation of KATP channels (KATP channels): activated

Molecule: PI(4,5)P2 [PIP2]
- activation of KATP channels (KATP channels): activated equally well
- maximum fold-increase in currents after PIP2 exposure [1]: 299.65 ± 121.72 fold and 299.65 fold
- time of exposure in PIP2 for currents to reach maximum [1]: 419.33 ± 57.86 s and 419.33 s
- PIP2 exposure until currents plateaued [2]: ≤ 1 min
- maximum fold-increase in currents after PIP2 exposure ([2]; −50 mV, mean (± SEM)): 1.45 fold
- time of exposure in PIP2 for currents to reach maximum ([2]; −50 mV, mean (± SEM)): 33.17 ± 3.18 s and 33.17 s
- maximum fold-increase in currents after PIP2 exposure [3]: 3.96 ± 0.47 fold and 3.96 fold
- time of exposure in PIP2 for currents to reach maximum [3]: 193.83 ± 33.66 s and 193.83 s
- maximum fold-increase in currents after PIP2 exposure [4]: 48.74 ± 18.25 fold and 48.74 fold
- time of exposure in PIP2 for currents to reach maximum [4]: 298.57 ± 73.76 s and 298.57 s

B1: rat Kir6.2^Q52R (natural protein)
chain: MLSRKGIIPEEYVLTRLAEDPTEPRYRTRERRARFVSKKGNCNVAHKNIRERGRFLQDVFTTLVDLKWPHTLLIFTMSFLCSWLLFAMVWWLIAFAHGDLAPGEGTNVPCVTSIHSFSSAFLFSIEVQVTIGFGGRMVTEECPLAILILIVQNIVGLMINAIMLGCIFMKTAQAHRRAETLIFSKHAVITLRHGRLCFMLRVGDLRKSMIISATIHMQVVRKTTSPEGEVVPLHQVDIPMENGVGGNSIFLVAPLIIYHVIDSNSPLYDLAPSDLHHHQDLEIIVILEGVVETTGITTQARTSYLADEILWGQRFVPIVAEEDGRYSVDYSKFGNTVKVPTPLCTARQLDEDRSLLDALTLASSRGPLRKRSVAVAKAKPKFSISPDSLS
notes: Kir6.2, rat, with the neonatal diabetes mutation Q52R; the models hold residues 32-352 (N-terminal 31 residues and the tail beyond 352 not resolved); Four Kir6.2 subunits form the pore of the channel with four SUR1 subunits; the gene was cloned into pShuttle/AdEasy; PDB 6BAA (WT channel) was the starting model; also called Kir6.2 (pore-forming subunit of the SUR1/Kir6.2^Q52R KATP channel); …
- stoichiometry N [5]: 4
